Test results published in US10774080B2, “Pyrimidine compound as JAK kinase inhibitor” (THERAVANCE BIOPHARMA R&D IP, LLC, priority 2017, dated 2020).

What was measured:
[1] = Dynamic moisture sorption (DMS); format: physicochemical; conditions: for total moisture uptake between 5 and 90% RH: 25° C.
Protocol: Dynamic moisture sorption (DMS) measurement was performed using a VTI atmospheric microbalance, SGA-100 system (VTI Corp., Hialeah, Fla. 33016). A weighed sample was used and the humidity was lowest possible value (close to 0% RH) at the start of the analysis. The DMS analysis consisted of an initial drying step (0% RH) for 120 minutes, followed by two cycles of sorption and desorption with a scan rate of 5% RH/step over the humidity range of 5% RH to 90% RH. The DMS run was performed isothermally at 25° C. The total moisture uptake between 5 and 90% RH was 1.96%.
The DMS analysis consisted of an initial drying step (0% RH) for 120 minutes, followed by two cycles of sorption and desorption with a scan rate of 5% RH/step over the humidity range of 5% RH to 90% RH. The DMS run was performed isothermally at 25° C. The total moisture uptake between 5 and 90% RH was about 0.02%.

in vitro = in vitro ADME; conditions: human, microsomes, pH 7.4, HLM Clint
Protocol: Assay 17: Human Liver Microsome Assay The objective of this assay was to assess the metabolic stability of test compounds in an in vitro human liver sub-fraction. Human liver microsomes obtained from Bioreclamation-IVT (Baltimore, Md.) were thawed on ice and diluted into 0.1M potassium phosphate buffer pH 7.4 to yield final incubation protein concentrations of 0.1 mg/mL. […] Incubations were conducted at 37° C. temperature and test aliquots were taken at time points 0, 5, 8, 15, 30 and 45 minutes. […] The resulting samples were injected onto an LC-MS/MS system for analysis. For each incubation, the peak area of the analytes in each t0 aliquot was set to 100% and the peak areas from subsequent time point aliquots were converted to percentage of parent compound remaining relative to t0. The percentage of parent compound remaining was converted to natural log scale and plotted versus time in minutes. A linear regression analysis was performed for the initial decline of the parent disappearance profile and a formula for the best-fit line determined. The slope of the resultant line was normalized to protein concentration in mg/mL protein or number of cells/mL and CLint was calculated as follows for liver microsomes: CLint (μL·min^−1·mg^−1)=(Slope×1000)/[protein,mg/mL]

SMILES: CCS(=O)(=O)N1[C@@H]2CCC[C@H]1C[C@H](N(C)c1nc(CO)c(F)c(Nc3cc(C)[nH]n3)n1)C2 [Form I]
- total moisture uptake between 5 and 90% RH [1]: 1.96%

SMILES: Cc1cc(Nc2cc(CO)nc(N(C)[C@@H]3C[C@H]4CC[C@@H](C3)N4CCC#N)n2)n[nH]1 [Compound C-2, 3-((1R,3s,5S)-3-((4-(hydroxymethyl)-6-((5-methyl-1H-pyrazol-3-yl)amino)pyrimidin-2-yl)(methyl)amino)-8-azabicyclo[3.2.1]octan-8-yl)propanenitrile, reference compound]
- microsomal CLint at 0.1 μM (in vitro): 12 µL/min/mg

SMILES: CCS(=O)(=O)N1[C@@H]2CCC[C@H]1C[C@H](N(C)c1nc(CO)c(F)c(Nc3cc(C)[nH]n3)n1)C2 [Form II]
- hygroscopicity (in words) [1]: non-hygroscopic
- total moisture uptake between 5 and 90% RH [1]: about 0.02%

SMILES: CCS(=O)(=O)N1[C@@H]2CCC[C@H]1C[C@H](N(C)c1nc(Nc3cc(C)[nH]n3)cc(C(N)=O)n1)C2 [Compound C-1, 2-(((1R,3s,5S)-9-(ethylsulfonyl)-9-azabicyclo[3.3.1]nonan-3-yl)(methyl)amino)-6-((5-methyl-1H-pyrazol-3-yl)amino)pyrimidine-4-carboxamide, reference compound]
- microsomal CLint at 0.1 μM (in vitro): 6 µL/min/mg
